Test systems include HCT-15 colon; U251 CNS; SF-539 CNS; A498 renal; SF-295 CNS; RPMI-8226 leukemia; HS 578T breast; MOLT-4 leukemia; HL-60(TB) leukemia.
Common to all, as to assay: DTP human tumour cell line panel, 48 h

Values joined by “and” are separate entries in the source; they are usually repeats but may differ in a detail not shown here. Equal entries are not always repeated.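 Cultured in 96-well plates, cells were exposed to test compound for 48 hours across five concentrations. At the GI50, growth is halved. TGI denotes the concentration required for complete inhibition of growth.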 A value given as a limit tells only on which side of the number the result lay.

One may read the TGI as the concentration giving total growth inhibition. Low readings indicate more potent growth arrest, high ones less potent growth arrest. Take `CC(C)C[S+]1C2=C([O-])CC(C)(C)CC2=Nc2ccccc21` (stereo unspecified): the TGI with HCT-15 colon, with U251 CNS, with SF-539 CNS, with A498 renal, in the experiment on SF-295 CNS and in the experiment with RPMI-8226 leukemia was more than 100 µM each time. Besides, the TGI in the experiment with HS 578T breast, with MOLT-4 leukemia and in the experiment on HL-60(TB) leukemia was more than 100 µM throughout.

For the molecule `COc1ccccc1C1C2=C(COC2=O)Oc2cc3c(cc21)OCO3` (stereo unspecified), the TGI in the experiment with HCT-15 colon was more than 84.6 µM; in the experiment on U251 CNS, more than 100 µM; in the experiment with SF-539 CNS, 5.32 µM; with A498 renal, 15.4 µM; with SF-295 CNS, 12.6 µM; with RPMI-8226 leukemia, more than 59.2 µM. Besides, the TGI was 13.3 µM in the experiment with HS 578T breast, more than 100 µM with MOLT-4 leukemia and 11.6 µM with HL-60(TB) leukemia.

In general, GI50 refers to the concentration at which growth is held to half of that of the control. On to `COc1ccc(/C=C2/N=C(N/N=C\C(O)C(O)C(O)CO)NC2=O)cc1` (stereo unspecified), for which the TGI in the experiment on HCT-15 colon was more than 100 µM; with U251 CNS, more than 100 µM; with SF-539 CNS, 40.1 µM; in the experiment with A498 renal it was more than 100 µM; in the experiment with SF-295 CNS it was more than 100 µM; with RPMI-8226 leukemia it was more than 100 µM. The TGI in the experiment on HS 578T breast, in the experiment with MOLT-4 leukemia and with HL-60(TB) leukemia was more than 100 µM each time. Moreover, the GI50 in the experiment with A498 renal is > 100 µM and 32.6 µM.

Take `CC(=O)Nc1ccc(NC(=O)CC(=O)Nc2ccc(NC(C)=O)cc2)cc1`: the TGI with HCT-15 colon was 61.9 µM; in the experiment on U251 CNS, more than 100 µM; in the experiment with SF-539 CNS, more than 100 µM; with A498 renal, more than 100 µM; with SF-295 CNS it was more than 100 µM; in the experiment with RPMI-8226 leukemia, more than 100 µM. Moreover, the TGI with HS 578T breast, in the experiment on MOLT-4 leukemia and in the experiment with HL-60(TB) leukemia was more than 100 µM in each case.

As for `Cc1ccc(S(=O)(=O)NC(=O)Nc2c(S(N)(=O)=O)cc(S(N)(=O)=O)c(Cl)c2Cl)cc1`, the TGI with HCT-15 colon, with U251 CNS, in the experiment on SF-539 CNS, with A498 renal, in the experiment on SF-295 CNS and in the experiment with RPMI-8226 leukemia was more than 100 µM throughout. The TGI in the experiment on HS 578T breast, with MOLT-4 leukemia and with HL-60(TB) leukemia was more than 100 µM throughout.

`c1ccc(-c2csc3c2-n2cccc2C3N2CCCC2)cc1` (stereo unspecified): the TGI in the experiment with HCT-15 colon, with U251 CNS, in the experiment with SF-539 CNS, with A498 renal, with SF-295 CNS and in the experiment on RPMI-8226 leukemia was more than 100 µM in each case. Also, the TGI in the experiment with HS 578T breast, in the experiment on MOLT-4 leukemia and in the experiment on HL-60(TB) leukemia was more than 100 µM in each case.

As to `CCO/C(O)=C(/C(=N)N1CCOCC1)C(=O)Nc1cccc(C(F)(F)F)c1`, the TGI in the experiment with HCT-15 colon, in the experiment on U251 CNS, in the experiment on SF-539 CNS, in the experiment with A498 renal, in the experiment on SF-295 CNS and with RPMI-8226 leukemia was more than 100 µM each time. For the same molecule, the TGI in the experiment on HS 578T breast, with MOLT-4 leukemia and in the experiment with HL-60(TB) leukemia was more than 100 µM throughout.

On to `OC1(c2ccccc2)CC2CCC(C1)N2CCCC(O)(c1ccccc1)c1ccccc1` (stereo unspecified), for which the TGI came out at 27.3 µM in the experiment on HCT-15 colon; 28.7 µM in the experiment with U251 CNS; 16.8 µM in the experiment with SF-539 CNS; 29.1 µM with A498 renal; 10.6 µM with SF-295 CNS; 6.4 µM in the experiment with RPMI-8226 leukemia. The TGI is 18.7 µM in the experiment on HS 578T breast, 36.3 µM in the experiment on MOLT-4 leukemia and more than 100 µM in the experiment with HL-60(TB) leukemia.

Regarding `O=C1CC(c2ccc(Cl)cc2)C2(C(=O)NC(=S)NC2=O)C(c2ccc(Cl)cc2)C1` (stereo unspecified), the total growth inhibition concentration (TGI) came to 52.8 µM in the experiment with HCT-15 colon; 79.7 µM in the experiment with U251 CNS; 40.9 µM with SF-539 CNS; 31.4 µM in the experiment with A498 renal; 35.9 µM in the experiment on SF-295 CNS; 51.2 µM with RPMI-8226 leukemia. Further, the TGI in the experiment on HS 578T breast worked out at 99.4 µM; with MOLT-4 leukemia it was 89.5 µM; in the experiment on HL-60(TB) leukemia, 57.2 µM.

In the case of `CC(=O)O[C@@H]1[C@H](OC2CCCCC2(c2ccccc2)c2ccccc2)O[N+]([O-])=CC12CCCCC2` (stereo partly specified), the TGI is 30.7 µM in the experiment with HCT-15 colon; 30.7 µM in the experiment with U251 CNS; 37.8 µM with SF-539 CNS; 29.9 µM in the experiment with A498 renal; 29.2 µM with SF-295 CNS; more than 100 µM in the experiment with RPMI-8226 leukemia. In addition, the TGI is 43.3 µM in the experiment with HS 578T breast, more than 100 µM in the experiment on MOLT-4 leukemia and 5.65 µM with HL-60(TB) leukemia.

In the case of `NC(Cc1ccc(O)cn1)C(=O)NC(C(=O)O)c1ccccc1` (stereo unspecified), the TGI in the experiment with HCT-15 colon, with U251 CNS, in the experiment on SF-539 CNS, with A498 renal, in the experiment with SF-295 CNS and in the experiment with RPMI-8226 leukemia was more than 100 µM in each case. Moreover, the TGI with HS 578T breast, with MOLT-4 leukemia and in the experiment on HL-60(TB) leukemia was more than 100 µM throughout.

Regarding `O=S(=O)(O)c1ccc2c(N=Nc3cccc4ccccc34)c(O)ccc2c1`, the TGI in the experiment on HCT-15 colon, with U251 CNS, in the experiment on A498 renal, in the experiment on SF-295 CNS, in the experiment with RPMI-8226 leukemia and in the experiment with HS 578T breast was more than 100 µM each time. Moreover, the TGI with MOLT-4 leukemia and with HL-60(TB) leukemia was more than 100 µM throughout.

`Cc1cc(C)cc(Nc2nnc3n2S(=O)(=O)c2cc(C)c(Cl)cc2S3)c1`: the TGI with HCT-15 colon was 28.3 µM; in the experiment with U251 CNS, 22.9 µM; in the experiment with SF-539 CNS, 13.7 µM; with A498 renal, 29.6 µM; in the experiment with SF-295 CNS, more than 100 µM; in the experiment with RPMI-8226 leukemia, 42 µM. In addition, the results for the TGI in the experiment on HS 578T breast, in the experiment on MOLT-4 leukemia and with HL-60(TB) leukemia were 26.9 µM, more than 100 µM and more than 100 µM, respectively.

`CC12NC(=C(C#N)C#N)C(C#N)=C3NC(N)=C(C#N)C(=C31)Oc1ccccc12` (stereo unspecified): the TGI in the experiment with HCT-15 colon is more than 100 µM; in the experiment with U251 CNS, more than 100 µM; with SF-539 CNS it was more than 88.6 µM; in the experiment with A498 renal, more than 100 µM; in the experiment on SF-295 CNS it was more than 100 µM; in the experiment with RPMI-8226 leukemia it was more than 100 µM. Also, the TGI in the experiment on HS 578T breast was more than 100 µM; in the experiment on MOLT-4 leukemia, more than 31.6 µM; in the experiment with HL-60(TB) leukemia it was more than 74.9 µM.

The record behind these values is PubChem BioAssay (NCI).
